Assay results as given in US20080113347A1, “Method for the in Vitro Diagnosis and Prognosis of Demyelinating Diseases, and for the Development of Drugs Against Demyelinating Diseases” (priority 2003, published 2008).
d = 2'-deoxy (DNA); m = 2'-O-methyl

Tests used:
[1] = tested on: dusp6 gene expression; experiment: Differential analysis of dusp6 gene expression in oligodendrocyte cultures with Rat Genome U34 DNA arrays; format: cell-based; parameters: key to Change: Increases (I); Decreases (D); undergoes No Change (NC); Marginally Increases (MI); Marginally Decreases (MD); key to Detection: Present (P); Absent (A); Marginal (M); details: for Ratio (=2^SLR): fold change vs untreated control; for Signal (dusp6, probe set U42627_at): arrays scaled to total intensity 100; for Change: vs control
Excerpt: Microarrays. The microarrays GeneChip Test 3 (Affymetrix, Santa Clara) were used which allow testing the quality of the RNA prior to the expression analysis with GeneChip Rat Genome U34 set (Affymetrix, Santa Clara), representing 3322 complete gene sequences. The dusp6 gene is represented in the microarray by probe set U42627_at of Affymetrix, which are sense oligonucleotides of 25 nucleotides in length designed on the basis of GeneBank U42627 sequence (Table 1).
Samples. The samples studied corresponded to primary oligodendrocyte cultures obtained from the optic nerve of 12-day old rats. To prevent inter-individual variations, each culture corresponded to a 10-animal cell pool. Treatments were made in duplicate with 10 μM AMPA (α-amino-3-hydroxy-5-methyl-4-isoxazolepropionic acid) or 3 μM kainate. The duration of treatments was 2, 10 and 15 minutes, the cells being collected immediately after treatment in the first two cases and 1 hour after the 15-minute treatment. Treatment for 10 and 15 minutes with AMPA and with kainate causes apoptosis, whereas 2-minute treatment was considered sublethal due to scarce treatment duration. After treatments, the cells were collected in TRIzol® Reagent (Life Technologies) and were stored at −80° C. until total RNA extraction.
The analysis was carried out with total RNA from oligodendrocyte cultures. Each sample corresponded to the mixture of total RNAs from two cultures and were called the following: control: untreated cultured oligodendrocytes ampa 2: oligodendrocytes treated for 2 minutes with 10 μM AMPA and collected after treatment ampa 10: oligodendrocytes treated for 10 minutes with 10 μM AMPA collected after treatment ampa 15: oligodendrocytes treated for 15 minutes with 10 μM AMPA and collected 60 minutes later Kainate 2: oligodendrocytes treated for 2 minutes with 3 μM kainate and collected after treatment Kainate 10: oligodendrocytes treated for 10 minutes with 3 μM kainate and collected after treatment Kainate 15: oligodendrocytes treated for 15 minutes with 3 μM kainate and collected 60 minutes later The total RNA of each one of the cultures was obtained by homogenizing the cells in TRIzol® Reagent (Life Technologies) following the supplier's recommendations. The resulting total RNA was cleaned with the RNeasy Mini kit (QIAGEN) (Chomczynski P. et al., Anal. Biochem., 1987, 162: 156; Chomczynski P., Biotechniques, 1993, 15: 532). 2 μg from each total RNA preparation were used as starting material for the synthesis of biotinylated cRNA with the MessageAmp™ aRNA kit (Ambion).
15 μg of each biotinylated cRNA were fragmented at 94° C. for 35 minutes in a buffer solution containing 40 mM Tris-Acetate (pH 8.1), 100 mM KOAc and 30 mM MgOAc. The fragmented cRNA was mixed with hybridization buffer (10 mM MES, 1M NaCl, 20 mM EDTA, 0.01% Tween 20) and was heated at 99° C. for 5 minutes and subsequently at 45° C. for 5 minutes, to then be loaded into the Affymetrix array. The first array in which hybridization was carried out was Affymetrix Test 3. This array allows testing the quality of the RNA prior to expression analysis in the Affymetrix® GeneChip® Rat Genome U34 set (RG-U34).
For hybridization, the arrays were incubated in a rotary oven at 45° C. for 16 hours and with a constant rotation of 60 rpm.
Washing and staining of each array was carried out in the Affymetrix® Fluidics Station. A washing and staining program was used which included:
The arrays were scanned at 560 nm using a confocal microscope using laser emission (Agilent GeneArray Scanner). Analysis of the intensity readings was carried out with Microarray Suite 5.0 software. To compare the arrays, the latter were scaled to a total intensity of 100.
Differential analysis of the dusp6 gene expression in the oligodendrocytes stimulated with regard to the control was carried out from the array comparison data obtained using the Affymetrix software. […]

[2] = tested on: oligodendrocytes treated with AMPA; experiment: Cell death inhibition in oligodendrocytes treated with AMPA after incubation with antisense oligonucleotides; format: cell-based, rat; details: ODN transfected with Lipofectin, stimulus 15 minutes, protecting effect assessed after 6 hours
Protocol: To evaluate if dusp6 expression blocking inhibits cell death of oligodendrocytes treated with AMPA, antisense oligonucleotides (ODNs) capable of blocking said gene expression were used. The working model used in this assay is a model based on the cell death of oligodendrocytes, a typical model for study the neurodegenerative phase of said demyelinating diseases.
Oligonucleotide design was carried out based on the secondary structure of the RNA, trying to prevent sequences presenting a high internal hybridization percentage, and with the aid of AO predict (http://www.cgb.ki.se/AOpredict/) computer software. To improve efficacy and capability to degrade RNA and to reduce side effects, last-generation oligonucleotides were designed, presenting two types of modifications; 2′-O-Methyl groups in the 6 first and last bases, and phosphorothiodated groups in the 8 intermediate bases. Furthermore, the oligonucleotides were labeled with Texas Red to be able to identify the cells transfected with said oligonucleotides.
Three antisense ODNs, for the purpose of identifying active sequences, plus a sense ODN, used as a negative control, were designed. To improve penetration thereof, the ODNs were transfected using the Lipofectin kit (Invitrogen).
24 hours after seeding, the oligodendrocytes were treated with a mixture of ODs at different concentrations coupled to the transfection kit liposomes.
After 24 hours, the cells were rinsed and were left another 24 hours before the experiment to ensure total blocking of the protein under study. Subsequently, the excitotoxic stimulus, AMPA 10 μM+CTZ 100 μM, was added during 15 minutes, and the protecting effect of the different ODNs after 6 hours was assessed.

[3] = tested on: oligodendrocytes; details: UO126 10 μM
Protocol: DUSP6 is a negative regulator of the MAPK/ERK signaling pathway which promotes cell survival, as documented above in the Background of the Invention section. Because of that, we tested if the pharmacological inhibition of this pathway potentiates oligodendrocyte death triggered by activation of AMPA receptors.
To block the MAPK/ERK pathway, oligodendrocytes were incubated with UO126, a dual MEK1 & 2 inhibitor, for 15 min prior to the excitotoxic stimulus. Subsequently, cells were exposed to AMPA 10 μM+CTZ 100 μM during 15 minutes in the presence or absence of UO126, and cell viability was assessed 24 h later by the MTT method.

[4] = treated 2 minutes (10 μM AMPA or 3 μM kainate), collected after treatment
[5] = treated 10 minutes (10 μM AMPA or 3 μM kainate), collected after treatment
[6] = treated 15 minutes (10 μM AMPA or 3 μM kainate), collected 60 minutes later
[7] = treatments with kainate (3 μM; 2, 10 and 15 minutes) taken together

C=C(C)[C@H]1CN[C@H](C(=O)O)[C@H]1CC(=O)O [Kainate, kainate]
SLR (vs control) ([1]; Signal Log Ratio (log2), treated 2 minutes (10 μM AMPA or 3 μM kainate), collected after treatment): 0.6 | SLR (vs control) ([1]; Signal Log Ratio (log2), treated 10 minutes (10 μM AMPA or 3 μM kainate), collected after treatment): 0.6 | SLR (vs control) ([1]; Signal Log Ratio (log2), treated 15 minutes (10 μM AMPA or 3 μM kainate), collected 60 minutes later): 0.9 | Ratio (=2^SLR) [1, 4]: 1.5 fold | Ratio (=2^SLR) [1, 5]: 1.5 fold | Ratio (=2^SLR) [1, 6]: 1.9 fold | Detection [1, 4]: P | Signal (dusp6, probe set U42627_at) [1, 4]: 48.4 | Detection [1, 5]: P | Signal (dusp6, probe set U42627_at) [1, 5]: 43.5 | Detection [1, 6]: P | Signal (dusp6, probe set U42627_at) [1, 6]: 63.7 | SLR (vs control) [1, 7]: < 1 | dusp6 expression increase with regard to the control [1, 7]: less than two fold | Change [1, 4]: I | Change [1, 5]: I | Change [1, 6]: I

ODN2: antisense ODN against dusp6; 2′-O-Methyl groups in 6 first and last bases, phosphorothiodated 8 intermediate bases, Texas Red labeled (antisense TCAACGTGGCCATCCCGGGC; sugars from the 5' end m6 d8 m6, backbone, methylation of C and T or U not given here; Texas Red label, phosphorothioates in eight intermediate bases)
oligodendroglial death after stimulation with AMPA 10 μM+CTZ 100 μM [2]: significantly inhibited | oligodendroglial death after stimulation with AMPA 10 μM+CTZ 100 μM ([2]; listed as SEQ ID NO:3): inhibit cell death of oligodendrocytes treated with AMPA

ODN3: antisense ODN against dusp6; 2′-O-Methyl groups in 6 first and last bases, phosphorothiodated 8 intermediate bases, Texas Red labeled (antisense CCAAGTGGACTCCCTGCAATC; sugars from the 5' end m6 d9 m6, backbone, methylation of C and T or U not given here; Texas Red label, phosphorothioates in eight intermediate bases)
oligodendroglial death after stimulation with AMPA 10 μM+CTZ 100 μM [2]: significantly inhibited | oligodendroglial death after stimulation with AMPA 10 μM+CTZ 100 μM ([2]; listed as SEQ ID NO:4): inhibit cell death of oligodendrocytes treated with AMPA

N#CC(=C(/N)Sc1ccccc1N)/C(C#N)=C(/N)Sc1ccccc1N [UO126]
oligodendroglial cell death induced by AMPA 10 μM+CTZ 100 μM in the presence of UO126 ([3]; 15 min prior to and during 15 minutes stimulus, MTT 24 h later, p<0.05, n=3 in triplicate): increased three-fold | oligodendroglial viability under control conditions ([3]; MTT, 24 h later): did not affect oligodendroglial viability
